Patent publication US20130172311A1, “Substituted heterocyclyl benzyl pyrazoles, and use thereof” (BAYER INTELLECTUAL PROPERTY GMBH, priority 2010, published 2013)

Columns and labels:
[1] = Pharmacokinetic parameters after intravenous administration in rats; type: in vivo; conditions: rat, plasma, i.v., comparison compound, read-out: CLplasma (plasma clearance) (converted)
Experimental: (§1) The substance to be examined was administered to animals (for example mice or rats) intravenously as a solution (for example in corresponding plasma with a small addition of DMSO or in a PEG/ethanol/water mixture), and peroral administration was effected as a solution (for example in Solutol/ethanol/water or PEG/ethanol/water mixtures) or as a suspension (e.g. in tylose), in each case via a gavage. After administration of the substance, blood was taken from the animals at fixed times. The blood was heparinized, then plasma was obtained therefrom by centrifugation. The substance was quantified analytically in the plasma via LC-MS/MS. From the plasma concentration/time plots determined in this way, using an internal standard and with the aid of a validated computer program, the pharmacokinetic parameters, such as AUC (area under the concentration/time curve), Cmax, (maximum plasma concentration), t1/2 (half life), VSS (distribution volume) and CL (clearance), and the absolute and relative bioavailability F and Frei (i.v./p.o. comparison or comparison of suspension to solution after p.o. administration), were calculated.
The substance to be examined was administered intravenously to rats, in each case in amounts between 0.3 and 1.0 mg/kg as a solution in plasma which contained up to 2% DMSO.

[2] = tested on: luciferase reporter under the control of an HIF-responsive sequence in HCT 116 cells; test: HIF luciferase assay; type: cell-based; conditions: Homo sapiens, HCT 116 reporter cells, hypoxia chamber (1% O2), 24 h
Experimental: HCT 116 cells were stably transfected with a plasmid which contained a luciferase reporter under the control of an HIF-responsive sequence. These cells were sown in microtitre plates [20 000 cells/cavity in RPMI 1640 medium with 10% foetal calf serum (FCS) and 100 μg/ml of hygromycin]. They were incubated overnight under standard conditions (5% CO2, 21% O2, 37° C., moistened). The following morning the cells were incubated with different concentrations of the test substances (0-10 μmol/l) in a hypoxia chamber (1% O2). After 24 h, Bright Glo reagent (Promega, Wis., USA) was added in accordance with the manufacturer's instructions, and after 5 min the luminescence was measured. Cells which were incubated under normoxia served as background controls.

[3] = Pharmacokinetic parameters after peroral administration in rats; type: in vivo; conditions: for AUCnorm (dose-normalized exposure) / bioavailability: 1-3 mg/kg, solution in Solutol/ethanol/water; for bioavailability: rat, plasma, po, read-out: F (bioavailability)
Experimental: as §1
To determine the active ingredient release from a prodrug compound, the prodrug was administered either intravenously or perorally, as described above, and the concentrations both of the prodrug and of the active ingredient released were quantified in the processed plasma.
The substance to be examined was administered perorally to rats, in each case in amounts between 1 and 3 mg/kg as a solution in Solutol/ethanol/water (40:10:50 or 40:20:40). The kinetic parameters determined for Working Example 1 are shown below by way of example for the inventive compounds [AUCnorm=dose-normalized exposure (area under the concentration/time curve)]:
The second row in this table gives the pharmacokinetic parameters for Example 1, as obtained after peroral administration of the prodrug compound from Example 15 (1 mg/kg of crystalline substance as a tylose suspension in water).

[4] = pH-dependent hydrolysis stability; type: physicochemical; conditions: HPLC area %; for % Example 1 active ingredient: released from prodrug Example 15
Experimental: 0.3 mg of the test substance (prodrug) was weighed into a 2 ml HPLC vial, and 0.6 ml of acetonitrile or acetonitrile/DMSO mixture (with up to 20 percent by volume of DMSO) was added. To dissolve the substance, the sample vessel was placed into an ultrasound bath for approx. 10 seconds. Subsequently, 1.0 ml of the particular aqueous buffer solution was added (commercially available buffer solutions of pH 2, 4, 6.5, 8 and 10) and the sample was treated again in the ultrasound bath. Over a period of 24 hours at 37° C., 5 μl of the sample solution were analysed by HPLC every hour for its content of unchanged prodrug or active ingredient released therefrom by hydrolysis. Quantification was effected via the area percentages of the corresponding HPLC peaks.

[5] = Plasma stability in vitro, human plasma; type: in vitro ADME; conditions: 37°C
Experimental: (§2) 1 mg of the test substance (prodrug) was weighed into a 2 ml HPLC vial, and 1.5 ml of DMSO and 1 ml of water were added. To dissolve the substance, the sample vessel was placed into an ultrasound bath for approx. 10 seconds. 0.5 ml of rat plasma or human plasma at 37° C. was added to 0.5 ml of this solution. The sample was agitated and approx. 10 μl were taken for a first analysis (time t0). […] The sample was kept at 37° C. over the test period. Characterization and quantification were effected by HPLC.

[6] = Plasma stability in vitro, rat plasma; type: in vitro ADME; conditions: 37°C
Experimental: as §2

Cc1ccc(Cn2nc(-c3nc(-c4ccc(OC(F)(F)F)cc4)no3)cc2C)cc1 [Example 1 in WO 2008/141731-A2, 5-[5-methyl-1-(4-methylbenzyl)-1H-pyrazol-3-yl]-3-[4-(trifluoromethoxy)phenyl]-1,2,4-oxadiazole, reference compound]
clearance [1]: 6.67 mL/min/kg
IC50 ([2]; comparison compound): 30 nM
AUCnorm (dose-normalized exposure) ([3]; p.o.): 1.9 kg·h/L
bioavailability [3]: 74%

Cc1cc(-c2nc(-c3ccc(OC(F)(F)F)cc3)no2)nn1Cc1cccc(N2CC(O)C2)c1 [Example 1, 1-{3-[(5-Methyl-3-{3-[4-(trifluoromethoxy)phenyl]-1,2,4-oxadiazol-5-yl}-1H-pyrazol-1-yl)methyl]phenyl}azetidin-3-ol]
IC50 [2]: 0.7 nM
AUCnorm (dose-normalized exposure) ([3]; p.o.): 0.43 kg·h/L
AUCnorm of Example 1 after administration of prodrug Example 15 ([3]; p.o., prodrug Example 15, 1 mg/kg crystalline substance as tylose suspension in water): 0.35 kg·h/L
bioavailability [3]: 68%
% Example 1 active ingredient ([4]; pH 2, 37°C, after 12 h): 6%
% Example 1 active ingredient ([4]; pH 4, 37°C, after 12 h): 9%
% Example 1 active ingredient ([4]; pH 6.5, 37°C, 0 h): 3%
% Example 1 active ingredient ([4]; pH 6.5, 37°C, 2 h): 7%
% Example 1 active ingredient ([4]; pH 6.5, 37°C, 4 h): 10%
% Example 1 active ingredient ([4]; pH 6.5, 37°C, 6 h): 13%
% Example 1 active ingredient ([4]; pH 6.5, 37°C, 12 h): 22%
% Example 1 active ingredient ([4]; pH 6.5, 37°C, 24 h): 35%
% Example 1 active ingredient ([4]; pH 8, 37°C, after 12 h): 30%
% Example 1 active ingredient ([4]; pH 10, 37°C, after 12 h): 78%

Cc1cc(-c2nc(-c3ccc(C4(C(F)(F)F)CC4)cc3)no2)nn1Cc1cccc(N2CC(O)C2)c1 [Example 2, 1-(3-{[5-Methyl-3-(3-{4-[1-(trifluoromethyl)cyclopropyl]phenyl}-1,2,4-oxadiazol-5-yl)-1H-pyrazol-1-yl]methyl}phenyl)azetidin-3-ol]
IC50 [2]: 0.6 nM

Cc1cc(-c2nc(-c3ccc(C(C)(C)C(F)(F)F)cc3)no2)nn1Cc1cccc(N2CC(O)C2)c1 [Example 3, 1-{3-[(5-Methyl-3-{3-[4-(1,1,1-trifluoro-2-methylpropan-2-yl)phenyl]-1,2,4-oxadiazol-5-yl}-1H-pyrazol-1-yl)methyl]phenyl}azetidin-3-ol]
IC50 [2]: 0.6 nM

Cc1cc(-c2nc(-c3ccc(OC(F)(F)F)cc3)no2)nn1Cc1cccc(N2CCC(O)CC2)c1 [Example 8, 1-{3-[(5-Methyl-3-{3-[4-(trifluoromethoxy)phenyl]-1,2,4-oxadiazol-5-yl}-1H-pyrazol-1-yl)methyl]phenyl}piperidin-4-ol]
IC50 [2]: 0.6 nM

Cc1cc(-c2nc(-c3ccc(C4(C(F)(F)F)CC4)cc3)no2)nn1Cc1cccc(N2CCC(O)CC2)c1 [Example 9, 1-(3-{[5-Methyl-3-(3-{4-[1-(trifluoromethyl)cyclopropyl]phenyl}-1,2,4-oxadiazol-5-yl)-1H-pyrazol-1-yl]methyl}phenyl)piperidin-4-ol]
IC50 [2]: 0.5 nM

Cc1cc(-c2nc(-c3ccc(C(C)(C)C(F)(F)F)cc3)no2)nn1Cc1cccc(N2CCC(O)CC2)c1 [Example 10, 1-{3-[(5-Methyl-3-{3-[4-(1,1,1-trifluoro-2-methylpropan-2-yl)phenyl]-1,2,4-oxadiazol-5-yl}-1H-pyrazol-1-yl)methyl]phenyl}piperidin-4-ol]
IC50 [2]: 0.4 nM

Cc1cc(-c2nc(-c3ccc(OC(F)(F)F)cc3)no2)nn1Cc1cccc(N2CCC(C#N)CC2)c1 [Example 11, 1-{3-[(5-Methyl-3-{3-[4-(trifluoromethoxy)phenyl]-1,2,4-oxadiazol-5-yl}-1H-pyrazol-1-yl)methyl]phenyl}piperidine-4-carbonitrile]
IC50 [2]: 0.4 nM

Cc1cc(-c2nc(-c3ccc(C4(C(F)(F)F)CC4)cc3)no2)nn1Cc1cccc(N2CCC(C#N)CC2)c1 [Example 12, 1-(3-{[5-Methyl-3-(3-{4-[1-(trifluoromethyl)cyclopropyl]phenyl}-1,2,4-oxadiazol-5-yl)-1H-pyrazol-1-yl]methyl}phenyl)piperidine-4-carbonitrile]
IC50 [2]: 0.3 nM

Cc1cc(-c2nc(-c3ccc(C(C)(C)C(F)(F)F)cc3)no2)nn1Cc1cccc(N2CCC(C#N)CC2)c1 [Example 13, 1-{3-[(5-Methyl-3-{3-[4-(1,1,1-trifluoro-2-methylpropan-2-yl)phenyl]-1,2,4-oxadiazol-5-yl}-1H-pyrazol-1-yl)methyl]phenyl}piperidine-4-carbonitrile]
IC50 [2]: 0.3 nM

Cc1cc(-c2nc(-c3ccc(SC(F)(F)F)cc3)no2)nn1Cc1cccc(N2CCC(O)CC2)c1 [Example 14, 1-(3-{[5-Methyl-3-(3-{4-[(trifluoromethyl)sulphanyl]phenyl}-1,2,4-oxadiazol-5-yl)-1H-pyrazol-1-yl]methyl}phenyl)piperidin-4-ol]
IC50 [2]: 0.5 nM

Cc1cc(-c2nc(-c3ccc(OC(F)(F)F)cc3)no2)nn1Cc1cccc(N2CC(OC(=O)CN(C)C)C2)c1 [Example 15, 1-{3-[(5-Methyl-3-{3-[4-(trifluoromethoxy)phenyl]-1,2,4-oxadiazol-5-yl}-1H-pyrazol-1-yl)methyl]phenyl}azetidin-3-yl N,N-dimethylglycinate]
% Example 15 prodrug ([5]; 0 h): 97%
% Example 15 prodrug ([5]; 0.5 h): 96%
% Example 15 prodrug ([5]; 1 h): 93%
% Example 15 prodrug ([5]; 1.5 h): 91%
% Example 15 prodrug ([5]; 2 h): 89%
% Example 15 prodrug ([5]; 4 h): 81%
melting point: 117 °C
prodrug compound in plasma ([3]; p.o., 1 mg/kg as tylose suspension, all times examined): not detectable
% Example 15 prodrug ([6]; 0 h): 95%
% Example 15 prodrug ([6]; 0.5 h): 87%
% Example 15 prodrug ([6]; 1 h): 80%
% Example 15 prodrug ([6]; 1.5 h): 72%
% Example 15 prodrug ([6]; 2 h): 69%
% Example 15 prodrug ([6]; 4 h): 52%
% Example 15 prodrug ([4]; pH 2, 37°C, after 12 h): 89%
% Example 15 prodrug ([4]; pH 4, 37°C, after 12 h): 89%
% Example 15 prodrug ([4]; pH 6.5, 37°C, 0 h): 94%
% Example 15 prodrug ([4]; pH 6.5, 37°C, 2 h): 91%
% Example 15 prodrug ([4]; pH 6.5, 37°C, 4 h): 87%
% Example 15 prodrug ([4]; pH 6.5, 37°C, 6 h): 84%
% Example 15 prodrug ([4]; pH 6.5, 37°C, 12 h): 73%
% Example 15 prodrug ([4]; pH 6.5, 37°C, 24 h): 56%
% Example 15 prodrug ([4]; pH 8, 37°C, after 12 h): 64%
% Example 15 prodrug ([4]; pH 10, 37°C, after 12 h): 0%
